From ChEMBL document CHEMBL3988442, “University of Dundee, Small-Polar-MMV Screening Library” (2021)

How the values were obtained:
[1] = microbe, parasite or virus in culture; details: Mycobacterium tuberculosis, 96 h, read-out: pIC50 (converted)
[2] = microbe, parasite or virus in culture; details: Mycobacterium tuberculosis, 72 h, read-out: pIC50 (converted)

SMILES | IC50 [1] | IC50 [2]
C=C(C)CSc1nnc(CCNC(=O)OC(C)(C)C)o1 | 5.84 µM | 40.4 µM
CCSc1nc2ccccc2c(=O)n1OCC(=O)OC | > 50.1 µM | 24.9 µM
COC(=O)COn1c(SC(C)C)nc2ccccc2c1=O | > 50.1 µM | 43.2 µM
Cc1ccc(CN2CC[C@H](c3nnc(COc4ccc(F)cc4)o3)C2)o1 | 37.2 µM | > 50.1 µM
FC(F)(F)c1ccc2nc([C@H]3CCN(C4CCCCC4)C3)[nH]c2c1 | 24.9 µM | 27.5 µM
CCCc1nc2c(c(C)c(C)n2Cc2ccncc2)c(N)c1CC | > 50.1 µM | > 50.1 µM
O=C(NCCc1c[nH]c2ccccc12)C1(n2cnnn2)CCCCC1 | > 50.1 µM | 47.6 µM
Cc1cnc(NC(=O)c2csc(NC3CCCC3)n2)s1 | > 50.1 µM | > 50.1 µM
O=C(Nc1ccccn1)c1csc(NC2CCCC2)n1 | 26.1 µM | 46.7 µM
Cc1cccc(C)c1NC(=O)CC(CN1CCN(C)CC1)C(=O)O (stereo not drawn) | > 50.1 µM | 32.8 µM
O=C(NCCc1c[nH]c2ccc(F)cc12)C1(n2cnnn2)CCCCC1 | 28 µM | 46.3 µM
Cn1cc(NC(=O)CNC(=O)N2CCN(c3ccccc3)CC2)cn1 | > 50.1 µM | > 50.1 µM
O=C(NCC(=O)N1CCc2ccccc2C1)c1cnccn1 | > 50.1 µM | > 50.1 µM
COC(=O)CNC(=O)c1nc(Br)sc1C(C)C | > 50.1 µM | > 50.1 µM
Cc1nsc(C(=O)NCCc2cccs2)n1 | 32.7 µM | 13.5 µM
COc1ccc(CC(=O)Nc2c(C)nc(N3CCCC3)nc2C)cc1 | > 50.1 µM | > 50.1 µM
O=C(Cc1cccs1)Nc1cnn(C2CCOC2)c1 (stereo not drawn) | > 50.1 µM | > 50.1 µM
Cn1c2c(c(=O)n1C)CN(C(=O)c1ccco1)CCC2 | > 50.1 µM | > 50.1 µM
CC(C)n1cnc(C2CN(C)c3ccc(C(=O)NCC4CC4)cc32)n1 (stereo not drawn) | > 50.1 µM | > 50.1 µM
O=C(NC1CC1)c1nc2c(s1)CCCN2c1ccccc1 | 14.2 µM | > 50.1 µM
Cc1cc(C(=O)NCC2Cn3nnc(C)c3CO2)no1 (stereo not drawn) | > 50.1 µM | > 50.1 µM
CCN1C(=O)C2(CCOCC2)c2cc(NC(=O)c3cnoc3C)ccc21 | > 50.1 µM | > 50.1 µM
Cc1cc(C)c(C#N)c(N2CCC(Cc3ccccc3)CC2)n1 | > 50.1 µM | > 50.1 µM
CCCN(CCn1c(=O)oc2ccccc21)CC1CC1 | > 50.1 µM | > 50.1 µM
N#CCCSc1nnc(Cc2ccccc2F)o1 | > 50.1 µM | > 50.1 µM

SMILES | IC50 [1] | IC50 [2]
CCc1cc2c(N3CCCC(c4ccn[nH]4)C3)ncnc2s1 (stereo not drawn) | 12.6 µM | 9.09 µM
CCOCCSc1nnc(Cc2ccccc2F)o1 | 27.5 µM | 33.5 µM
CCc1nc(CN2CCCN(Cc3noc(C4CC4)n3)CC2)cs1 | > 50.1 µM | > 50.1 µM
COCc1ccc(CNc2cnn(C(C)(C)C)c(=O)c2Cl)cc1 | 15.3 µM | > 50.1 µM
CCCc1nn(Cc2csc(C(C)C)n2)c(=O)o1 | 20.4 µM | 3.08 µM
Cn1cnc2c1CCN(c1ccnc(-c3ccccc3)n1)C2 | 38.1 µM | 15.6 µM
Cc1ccc(Cl)c(NC(=O)NC2(C)CCOC2)c1 (stereo not drawn) | > 50.1 µM | > 50.1 µM
N#Cc1cnc2cc(F)cc(F)c2c1NC1CCN(CC(N)=O)CC1 | > 50.1 µM | > 50.1 µM
CN(Cc1nnc(C2CC2)o1)Cc1ccccc1-c1ccccc1 | > 50.1 µM | 24.7 µM
CC(C)c1nnc(CN(C)Cc2ccccc2-c2ccccc2)o1 | 11.8 µM | 15.8 µM
O=C(Cc1ccc2c(c1)CCCC2)Nc1cccnc1N1CCSCC1 | 9.97 µM | 12 µM
COc1ccc(-n2cc(CNC(=O)c3ccccn3)nn2)cc1 | > 50.1 µM | > 50.1 µM
CC(C)Oc1cccc(CN(C)C(=O)Cc2ccon2)c1 | > 50.1 µM | > 50.1 µM
COC(=O)C(NC(=O)c1ccc(NC2CC2)nc1)c1ccccc1 (stereo not drawn) | 21.9 µM | > 50.1 µM
CCCNc1nc(CS(=O)(=O)c2ccccc2)cs1 | > 50.1 µM | > 50.1 µM
COC(=O)C(NC(=O)c1ccc(N(C)C)nc1)c1ccccc1 (stereo not drawn) | 10.2 µM | 33.2 µM
CCC(=O)Nc1nnc2n(Cc3cccc(OC)c3)[nH]c(C)c1-2 | > 50.1 µM | > 50.1 µM
O=C(c1cc(C2CCCC2)no1)N1CCCCC1 | 4.9 µM | 2.4 µM
Cc1cnn(C2CN(c3ccccc3S(=O)(=O)C(F)(F)F)C2)c1 | 29.4 µM | 10.2 µM
COc1ccc(C(=O)NC2COc3ccccc3C2)cc1OCC(=O)O (stereo not drawn) | 26 µM | > 50.1 µM
Cc1ccccc1CN1CCCN(S(=O)(=O)N(C)C2CCCCC2)CC1 | > 50.1 µM | > 50.1 µM
CNC(=O)NCCc1csc2ccccc12 | > 50.1 µM | > 50.1 µM
Cc1nonc1NC(=O)CCn1cc(Br)ccc1=O | > 50.1 µM | > 50.1 µM
COCCCN(C)c1nc(-c2ccncc2)nc(C)c1C | 6.84 µM | 11.8 µM
CC(C)c1nc(CSc2nnc(-c3cccs3)n2CC(N)=O)no1 | > 50.1 µM | 30.9 µM

SMILES | IC50 [1] | IC50 [2]
CC(C)c1nnc(CN2CC(n3cccn3)Cc3ccccc32)o1 (stereo not drawn) | > 50.1 µM | > 50.1 µM
Cc1ccc(-c2cc(CS(=O)(=O)NC3CCCNC3=O)on2)cc1 (stereo not drawn) | > 50.1 µM | > 50.1 µM
CCOCCNC(=O)Nc1ccc(OCc2noc(C3CC3)n2)cc1 | > 50.1 µM | > 50.1 µM
CCc1noc(CSc2n[nH]c(-c3ccccn3)n2)n1 | 25.1 µM | > 50.1 µM
CC(C)c1csc(C(=O)N(C)c2ccc(Br)cn2)n1 | 25.3 µM | 21.7 µM
CCCC(C)N(C)Cc1nnc(-c2ccc(Br)s2)o1 (stereo not drawn) | 29.4 µM | 1.85 µM
CCOCCN(C)C(c1cccnc1)c1ccc(F)cc1F (stereo not drawn) | > 50.1 µM | > 50.1 µM
CC(C)C(C)N(C)Cc1nnc(-c2ccc(Br)s2)o1 (stereo not drawn) | 20.4 µM | 48.4 µM
CC(C1CC1)N(C)Cc1nnc(-c2ccc(Br)s2)o1 (stereo not drawn) | 42.1 µM | 2.95 µM
CCN(C)c1ccc(CNC(=O)CCn2cc(C)cn2)cc1F | > 50.1 µM | > 50.1 µM
O=C(OCCNc1ncccn1)c1ccc(Cl)s1 | > 50.1 µM | 29.7 µM
O=C(OCCNc1ncccn1)c1ccc(Br)s1 | 29.8 µM | > 50.1 µM
CC1(NC(=O)CC2CCc3ccccc32)CCOCC1 (stereo not drawn) | > 50.1 µM | > 50.1 µM
COc1cccc2c1CCCCN2C(=O)c1oc(C)nc1C | > 50.1 µM | > 50.1 µM
FC(F)(F)Sc1ccccc1NCc1nc(C2CC2)no1 | > 50.1 µM | 15.7 µM
CC(C)COc1cncc(N(C)C2CCN(c3ncccn3)CC2)n1 | 40.6 µM | 30 µM
CN(C)c1nc(N)nc(CN2CCCC(c3ccccc3)CC2)n1 (stereo not drawn) | > 50.1 µM | > 50.1 µM
Cc1cc(NCCC(=O)NC(C)C)nc(-c2ccncc2)n1 | > 50.1 µM | > 50.1 µM
Cc1nc(-c2nnc[nH]2)sc1C(=O)N1CCCC1Cn1cccn1 (stereo not drawn) | > 50.1 µM | > 50.1 µM
c1cnc(-c2nc(C3CCOC3)no2)cn1 (stereo not drawn) | > 50.1 µM | > 50.1 µM
CN1CCOC(CNCCOc2cccc(C#N)c2)C1 (stereo not drawn) | > 50.1 µM | > 50.1 µM
COc1cc(C)sc1C(=O)NCCNc1ccccc1 | 4.3 µM | 5.82 µM
COCCCSc1ccc(NCc2ccc(C)cn2)cc1 | 49.1 µM | > 50.1 µM
COCCCSc1ccc(NCc2scnc2C)cc1 | 38.7 µM | 25.4 µM
CCNc1cc2c(nn1)CCN(C(=O)C1COc3ccccc3C1)C2 (stereo not drawn) | 45 µM | 44.6 µM

SMILES | IC50 [1] | IC50 [2]
CC(C)CC(C)N(C)Cc1nnc(-c2ccco2)o1 (stereo not drawn) | 14.9 µM | 11.7 µM
COCc1cccc(C(=O)N2CCCC2)c1 | > 50.1 µM | 16.3 µM
CCCC(C)N(C)Cc1nnc(-c2ccco2)o1 (stereo not drawn) | 29.5 µM | 5.32 µM
CC(C)C(C)N(C)Cc1nnc(-c2ccco2)o1 (stereo not drawn) | > 50.1 µM | 1.38 µM
CN(C)c1cc(C(=O)Nc2ccccc2C(=O)NC(C)(C)C)ccn1 | > 50.1 µM | > 50.1 µM
CC(C)CN(Cc1nnc(-c2ccco2)o1)CC(C)C | > 50.1 µM | 4.4 µM
CC(=O)c1ccc(C(=O)Nc2ccnc(N(C)C)n2)cc1 | > 50.1 µM | > 50.1 µM
CN(CCc1ccccn1)Cc1nccn1Cc1ccccc1 | > 50.1 µM | 43.5 µM
Cc1cccc(-c2ccc(C(=O)NCCN3CCOCC3)c(=O)[nH]2)c1 | > 50.1 µM | > 50.1 µM
COCCC(C)NC(=O)Nc1ccc(N2CCOC2=O)c(OC)c1 (stereo not drawn) | > 50.1 µM | > 50.1 µM
CC(C)(C)n1cc(NC(=O)C2CN(Cc3ccccc3)CCO2)cn1 (stereo not drawn) | > 50.1 µM | > 50.1 µM
COc1ccc(CNC(C)c2ccc(Cl)c(Cl)c2)c(OC)c1OC (stereo not drawn) | > 50.1 µM | 45.1 µM
COc1c(C)cnc(CSc2nnc(N)s2)c1C | > 50.1 µM | > 50.1 µM
O=C1CCCN1Cc1nnc(SCc2ccc3c(c2)CCC3)o1 | 46.5 µM | 22 µM
O=C(NCc1nnc2n1CCCCC2)N(Cc1ccncc1)C1CC1 | > 50.1 µM | > 50.1 µM
Cc1cc2n(n1)CC(CNC1CCN(C3CC3)CC1)CN2 (stereo not drawn) | > 50.1 µM | > 50.1 µM
Cc1ccc(CNc2ccccc2-n2ccc(C)n2)nc1 | 24.5 µM | > 50.1 µM
COC(=O)COc1cc(NCc2c(C)noc2C)c(Cl)cc1C | 35 µM | 32.1 µM
CCc1nc(CN2CCCN(c3cnc4ccccc4n3)CC2)no1 | 26.5 µM | > 50.1 µM
CC(C)C1CN(C(=O)c2ccccc2)CCS1 (stereo not drawn) | 12.6 µM | 8.62 µM
c1cc(CNCc2ccc(-n3cncn3)nc2)cc(OC2CCCC2)c1 | 33.9 µM | 35 µM
CC(C)(C)c1n[nH]cc1CNCC1CCN(C2CC2)C1 (stereo not drawn) | 27.6 µM | 28.5 µM
CC(NCc1ccc(OCC(N)=O)cc1)c1ccc(Cl)cc1Cl (stereo not drawn) | 18.8 µM | 49 µM
COCCN1C[C@@H]2CN(c3cc(OC)ncn3)CCC[C@]2(C(=O)O)C1 | > 50.1 µM | > 50.1 µM
